This is an account of results in patent publication US20240108740A1, “THERAPEUTIC COMPOSITIONS INCLUDING SPN10 AND USES THEREOF” (Stealth BioTherapeutics Inc., priority 2022, published 2024).

Residues, ends and D or L forms follow the SMILES beside them.

Test [1] has as its system mouse peritoneal macrophages. The test can be described thus: Example 1: oxLDL-induced CD36 expression and foam cell formation. It is filed as cell-based. On the procedure:
Other controls will include CD36 expression from mouse heart (H) and macrophages obtained from CD36 knockout mice (KO). The amount of CD36 protein will be normalized to β-actin.
Incubation of macrophages with oxLDL for 48 hours is also anticipated to increase foam cell formation. Foam cell will be visualized by oil red O, which stains lipid droplets red.
Incubation of macrophages with oxLDL is anticipated to increase the percentage of apoptotic cells.

Another test concerns Wild-type (WT) mice. The test can be described thus: Example 2: acute cerebral ischemia (occlusion of the right middle cerebral artery). It counts as in vivo, mouse. On the procedure:
Cerebral ischemia will be induced by occlusion of the right middle cerebral artery for 30 min. Wild-type (WT) mice will be given either saline vehicle (Veh) (i.p., n=9), peptide conjugates (2 mg/kg or 5 mg/kg, i.p., n=6), aromatic-cationic peptides (e.g., an equivalent molar dose of aromatic-cationic peptide based on the concentration of the aromatic-cationic peptide administered in the peptide conjugate treatment group), SPN10(s) (e.g., an equivalent molar dose of SPN10 based on the concentration of SPN10 administered in the peptide conjugate treatment group), or SPN10(s) in combination with aromatic-cationic peptides (e.g., an equivalent molar dose of SPN10 based on the concentration of SPN10 administered in the peptide conjugate treatment group and an equivalent molar dose of aromatic-cationic peptide based on the concentration of aromatic-cationic peptide administered in the peptide conjugate treatment group) at 0, 6, 24 and 48 hours after ischemia. Mice will be sacrificed 3 days after ischemia. Brains will be frozen, sectioned, and stained using Nissl stain. Infarct volume and hemispheric swelling will be determined using an image analyzer. Data will be analyzed by one-way ANOVA with posthoc analysis.

For the next test, the system named is N2A cells. The test can be described thus: Example 23: caspase activity (FLICA kit). Set-up: dose or concentration left out as unconfirmed. Particulars: 12 hours. It counts as cell-based. On the procedure:
N2A cells will be grown on 96-well plates, treated with t-BHP (0.05 mM) in the presence of vehicle, peptide conjugates, aromatic-cationic peptides, or SPN10(s) with or without aromatic-cationic peptides at 37° C. for 12-24 hours. All treatments will be carried out in quadruplicate. N2A cells will be incubated with t-BHP ([…]) alone or in the presence of peptide conjugates, aromatic-cationic peptides, or SPN10(s) with or without aromatic-cationic peptides at 37° C. for 12 hours. Cells will be gently lifted from the plates with a cell detachment solution (Accutase, Innovative Cell Technologies, Inc., San Diego, CA, U.S.A.) and will be washed twice in PBS. Caspase activity will be assayed using a FLICA kit (Immunochemistry Technologies LLC, Bloomington, MN). According to the manufacturer's recommendation, cells will be resuspended (approx. 5×10^6 cells/mL) in PBS and labeled with pan-caspase inhibitor FAM-VAD-FMK for 1 hour at 37° C. under 5% CO2 while protected from light. Cells will then be rinsed to remove the unbound reagent and fixed. Fluorescence intensity in the cells will be measured by a laser scanning cytometer (Beckman-Coulter XL, Beckman Coulter, Inc., Fullerton, CA, U.S.A.) using the standard emission filters for green (FL1). For each run, 10,000 individual events will be collected and stored in list-mode files for off-line analysis.

In test [2] the test system is renal ischemia-reperfusion (IR) injury in rats. Briefly: Mitochondrial respiration and ATP synthesis after renal ischemia-reperfusion injury. It counts as in vivo, rat. The settings on record: 45 minutes renal artery occlusion, 20 minutes or 1 hour reperfusion. How it is done: Animals will be subjected to bilateral occlusion of renal artery for 45 minutes followed by 20 minutes or 1 hour of reperfusion. Subjects will receive saline vehicle, a peptide conjugate (2.0 mg/kg s.c.), an aromatic-cationic peptide (an equivalent molar dose of aromatic-cationic peptide based on concentration of the aromatic-cationic peptide administered in the peptide conjugate group) SPN10 (an equivalent molar dose of SPN10 based on concentration of SPN10 administered in the peptide conjugate group), or SPN10(s) in combination with aromatic-cationic peptides (e.g., an equivalent molar dose of SPN10 based on the concentration of SPN10 administered in the peptide conjugate treatment group and an equivalent molar dose of aromatic-cationic peptide based on the concentration of aromatic-cationic peptide administered in the peptide conjugate treatment group) 30 minutes before ischemia and again at the time of reperfusion (n=4-5 in each group). It is anticipated that the peptide conjugate, aromatic-cationic peptide or SPN10(s) (with or without aromatic-cationic peptides) will improve oxygen consumption and ATP synthesis.

Test [3] concerns subjects at risk for developing hyperalgesia. Briefly: Prevention of neuropathy or hyperalgesia in at-risk humans. It is filed as in vivo, human. Particulars: s.c., once daily. The text has this: Subjects at risk for developing hyperalgesia will be recruited as they present in clinic for the treatment of conditions associated with the development of peripheral neuropathy or hyperalgesia. Independent studies will address neuropathy and hyperalgesia resulting from, caused by, or otherwise associated with genetic disorders, metabolic/endocrine complications, inflammatory diseases, vitamin deficiencies, malignant diseases, and toxicity, such as alcohol, organic metal, heavy metal, radiation, and drug toxicity. Subjects will be selected such that they are at risk for developing a single type of neuropathy or hyperalgesia, having no risk factors outside the scope of the study in which the subject is enrolled, and as yet not having symptoms associated with neuropathy or hyperalgesia. Subjects will be screened for their willingness to enroll in the study, and informed consent will be obtained. […]
After a focused interview about the medical history, baseline measurements of touch and sharpness detection thresholds, grooved pegboard tests, and thermal detection thresholds will be determined according to the methods described above, with statistical analysis as described above. […]
Subjects will be evaluated weekly during the trial for sharpness detection thresholds, grooved pegboard tests, and thermal detection thresholds. […]

On to `N=C(N)NCCC[C@H](NC(=O)[C@@H](N)Cc1c[nH]c2ccccc12)C(=O)N[C@@H](Cc1c[nH]c2ccccc12)C(=O)N[C@@H](CCCCN)C(N)=O` [SPN10, H-L-Trp-L-Arg-L-Trp-L-Lys-NH2] (H-WRWK-NH2), for which the “percentage of apoptotic cells induced by oxLDL” value in test [1] is reported as “significantly reduce the percentage of apoptotic cells”. Also, in test [1] (25 μg/mL oxLDL, 48 hours), the “up-regulation of CD36 protein levels by oxLDL” value is “significantly inhibit the up-regulation of CD36 protein levels”. In test [1] (compared to vehicle control (V)), the “CD36 protein levels (western blot)” value is on record as “significantly reduce CD36 protein levels”. In addition, the “oxLDL-induced up-regulation of CD36 mRNA” value in test [1] (oxLDL 50 μg/mL, 48 hours) is listed as “abolish the up-regulation of CD36”. Also, the “oxLDL-induced foam cell formation (oil red O)” value in test [1] (oxLDL, 48 hours) is recorded as “prevent oxLDL-induced foam cell formation”. In addition, the “depletion of GSH in the ipsilateral cortex” value in the test with Wild-type (WT) mice (2 mg/kg i.p. at 0, 6, 24 and 48 hours) is “significantly be reduced”. In addition, the “infarct volume and hemispheric swelling” value with Wild-type (WT) mice (treatment at 0, 6, 24 and 48 hours after 30 minute occlusion, compared to saline) was “significant reduction in infarct volume and hemispheric swelling”. Further, the “increase in caspase activity by t-BHP” value in the test on N2A cells is “dose-dependently inhibited”. For the same compound, in test [2], the “oxygen consumption and ATP synthesis” value is reported as “improve”. For the same compound, in test [3], the “development of neuropathy or hyperalgesia” value is recorded as “attenuated”.
